Measured values taken from patent US20210284668A1, “GOLD (I)-PHOSPHINE 1,2,3-TRIAZOLE DERIVATIVES WITH ANTIBIOTIC PROPERTIES” (Centre National de la Recherche Scientifique, priority 2018, published 2021).
Values joined by “and” are separate entries in the source; they are usually repeats but may differ in a detail not shown here. Equal values may be shown once.

Key:
[1] = tested on: S. epidermidis ATCC35984; assay: MIC by microdilution, S. epidermidis ATCC35984; assay type: cell-based, Staphylococcus epidermidis; conditions: S. epidermidis ATCC35984 (MecA positive), in duplicate
Description: (§1) The antibacterial profile of each derivative was evaluated by the standard microdilution method for susceptibility testing on 16 different strains, following the guidelines of CLSI. The selected panel included: • S. aureus ATCC25923 (MecA negative, wild-type) • S. aureus ATCC29213 (MecA negative, wild-type) • S. aureus ATCC700699 (MecA positive, glycopeptide resistant) • S. aureus ST20131365 (MecA positive, glycopeptide resistant) • S. epidermidis ATCC14990 (MecA negative, wild-type) • S. epidermidis ATCC35984 (MecA positive) • S. epidermidis ST20140436 (MecA positive, glycopeptide resistant) • S. epidermidis ST20150446 (MecA positive, glycopeptide resistant) • E. faecalis JH2-2 (wild-type) • E. faecalis UCN41 (VanA positive, glycopeptide resistant) • E. faecalis V583 (VanB positive, glycopeptide resistant) • E. faecium ATCC19434T (wild-type) • E. faecium BM4147 (VanA positive, glycopeptide resistant) • E. faecium AUS0004 (VanB positive, glycopeptide resistant) • E. coli ATCC25922 (wild-type) • Clostridium difficile ATCC9689 (wild-type)
(§2) Both series issued from the SAR study were evaluated for their antibacterial activity on a panel of characterized strains obtained from the French National Reference Centers for Staphylococci (Lyon, Pr. Fréderique Laurent) and for Enterococci (Caen, Pr. Vincent Cattoir), respectively. As shown in the following tables, both series contain very active compounds on multi-resistant Gram-positive bacteria (Minimal Inhibitory Concentrations lower than comparator antibiotic ampicillin). Furthermore, a very important antibacterial effect has been shown too on a strain of Clostridium difficile, a Gram-positive, spore-forming, bacillus responsible for post-antibiotic diarrhoae.
(§3) The antibacterial activity of test compounds was evaluated on a selected panel of Gram-positive (4 Staphylococcus aureus, 4 Staphylococcus epidermidis, 3 Enterococcus faecalis, 3 Enterococcus faecium, 1 Clostridium difficile) and Gram-negative strains (1 Escherichia coli, 1 Klebsiella pneumoniae, 1 Pseudomonas aeruginosa, 1 Acinetacter baumannii) with known features of antibiotic resistance (from wild-type susceptibility to multi-drug resistance). The Minimal Inhibitory Concentration (MIC) of test compounds was determined in duplicate by the microdilution method in 96-well microplates with a final volume of 100 μL per well and Mueller-Hinton broth as the growth medium, as recommended by the CLSI (Clinical and Laboratory Standards Institute, document Mo7-A10, USA).

[2] = tested on: E. faecium ATCC19434T; assay: MIC by microdilution, E. faecium ATCC19434T; assay type: cell-based, Enterococcus faecium; set-up: unit not given here; conditions: E. faecium ATCC19434T (wild-type), in duplicate
Description: as §1, §2, §3

[3] = tested on: S. aureus ATCC700699; assay: MIC by microdilution, S. aureus ATCC700699; assay type: cell-based, Staphylococcus aureus; set-up: unit not given here; conditions: S. aureus ATCC700699 (MecA positive, glycopeptide resistant), in duplicate
Description: as §1, §2, §3

[4] = tested on: S. epidermidis ATCC14990; assay: MIC by microdilution, S. epidermidis ATCC14990; assay type: cell-based, Staphylococcus epidermidis; conditions: S. epidermidis ATCC14990 (MecA negative, wild-type), in duplicate
Description: as §1, §2, §3

[5] = tested on: panel of Gram-positive and Gram-negative strains; assay: Antibacterial profile on the selected panel of strains; assay type: cell-based; conditions: summary of Tables 1-12
Description: as §1, §2, §3

[6] = tested on: E. faecalis UCN41; assay: MIC by microdilution, E. faecalis UCN41; assay type: cell-based, Enterococcus faecalis; set-up: unit not given here; conditions: E. faecalis UCN41 (VanA positive, glycopeptide resistant), in duplicate
Description: as §1, §2, §3

[7] = tested on: S. aureus ATCC25923; assay: MIC by microdilution, S. aureus ATCC25923; assay type: cell-based, Staphylococcus aureus; conditions: S. aureus ATCC25923 (MecA negative, wild-type), Mueller-Hinton broth, in duplicate
Description: as §1, §2, §3

[8] = tested on: Clostridium difficile ATCC700057; assay: MIC by microdilution, Clostridium difficile; assay type: cell-based; conditions: strain ATCC70057 [sic] (Tables 1-2) / ATCC700057 (Tables 3-10), in duplicate
[9] = tested on: E. faecalis JH2-2; assay: MIC by microdilution, E. faecalis JH2-2; assay type: cell-based, Enterococcus faecalis; set-up: unit not given here; conditions: E. faecalis JH2-2 (wild-type), in duplicate
Description: as §1, §2, §3

[10] = tested on: E. faecalis V583; assay: MIC by microdilution, E. faecalis V583; assay type: cell-based, Enterococcus faecalis; conditions: E. faecalis V583 (VanB positive, glycopeptide resistant), in duplicate
Description: as §1, §2, §3

[11] = tested on: E. faecium AUS0004; assay: MIC by microdilution, E. faecium AUS0004; assay type: cell-based, Enterococcus faecium; conditions: E. faecium AUS0004 (VanB positive, glycopeptide resistant), in duplicate
Description: as §1, §2, §3

[12] = tested on: E. faecium BM4147; assay: MIC by microdilution, E. faecium BM4147; assay type: cell-based, Enterococcus faecium; set-up: unit not given here; conditions: E. faecium BM4147 (VanA positive, glycopeptide resistant), in duplicate
Description: as §1, §2, §3

[13] = tested on: E. coli ATCC25922; assay: MIC by microdilution, E. coli ATCC25922; assay type: cell-based, Escherichia coli; conditions: E. coli ATCC25922 (wild-type), in duplicate
Description: as §1, §2, §3

[14] = tested on: S. aureus ST20131365; assay: MIC by microdilution, S. aureus ST20131365; assay type: cell-based, Staphylococcus aureus; conditions: S. aureus ST20131365 (MecA positive, glycopeptide resistant), in duplicate
Description: as §1, §2, §3

[15] = tested on: S. epidermidis ST20150446; assay: MIC by microdilution, S. epidermidis ST20150446; assay type: cell-based, Staphylococcus epidermidis; conditions: S. epidermidis ST20150446 (MecA positive, glycopeptide resistant), in duplicate
Description: as §1, §2, §3

[16] = tested on: S. epidermidis ST20140436; assay: MIC by microdilution, S. epidermidis ST20140436; assay type: cell-based, Staphylococcus epidermidis; conditions: S. epidermidis ST20140436 (MecA positive, glycopeptide resistant), in duplicate
Description: as §1, §2, §3

SMILES	Minimal Inhibitory Concentration (MIC) [1]	Minimal Inhibitory Concentration (MIC) [2]	Minimal Inhibitory Concentration (MIC) [3]	Minimal Inhibitory Concentration (MIC) [4]	antimicrobial / antibacterial activity (in words) [5]	Minimal Inhibitory Concentration (MIC) [6]	Minimal Inhibitory Concentration (MIC) [7]	Minimal Inhibitory Concentration (MIC) [8]	Minimal Inhibitory Concentration (MIC) [9]	Minimal Inhibitory Concentration (MIC) [10]	Minimal Inhibitory Concentration (MIC) [11]	Minimal Inhibitory Concentration (MIC) [12]	Minimal Inhibitory Concentration (MIC) [13]	Minimal Inhibitory Concentration (MIC) [14]	Minimal Inhibitory Concentration (MIC) [15]	Minimal Inhibitory Concentration (MIC) [16]
CC(=O)OC[C@H]1O[C@@H]([S-])[C@H](OC(C)=O)[C@@H](OC(C)=O)[C@@H]1OC(C)=O.CCP(CC)CC.[Au+] [Auranofin, reference compound]	≤0.06	≤0.06	≤0.06	≤0.06	–	–	–	–	–	–	–	–	–	–	–	–
C#CCOC(=O)N[C@@H](C(=O)N[C@@H]1C(=O)N2[C@@H]1SC(C)(C)[C@@H]2C(=O)O)c1ccccc1 [TMB2]	–	–	–	–	do not show an antibacterial activity	–	–	–	–	–	–	–	–	–	–	–
CC[P+](CC)(CC)[Au-][c]1nn[nH]c1CNC(=O)NC(C(=O)NC1C(=O)N2C1SC(C)(C)C2C(=O)O)c1ccccc1 (stereo not drawn) [TMB24]	0.125	0.5	0.125 and 0.25	≤0.06	have antimicrobial activity	0.25	0.125	≤0.06	0.25 and 0.5	0.25 and 0.5	0.5	0.5	>8	0.25	–	–
CC[P+](CC)(CC)[Au-][c]1nn[nH]c1CCC(=O)N[C@H](CO)C(=O)O [TMB38]	≤0.06	≤0.06	0.125	≤0.06	have antimicrobial activity	0.125	≤0.06	0.125 and 0.25	0.125	0.125	0.125	0.125	–	≤0.06	≤0.06	≤0.06
C[C@@H]1COc2c(N3CCN(C)CC3)c(F)cc3c(=O)c(C(=O)O)cn1c23 [TMB47, Ofloxacin, reference compound]	0.125	4	>8	0.25	have antimicrobial activity	2	0.25	–	2	–	–	1	–	–	–	–
CC[P+](CC)(CC)[Au-][c]1nn[nH]c1CN1C(=O)NC2CSC(CCCCC(=O)O)C21 (stereo not drawn) [TMB48]	0.125	1	0.5	0.125	have antimicrobial activity	1	0.25	–	1	–	–	2	–	–	–	–
CC[P+](CC)(CC)[Au-][c]1nn[nH]c1CNc1c(F)cc2c(=O)c(C(=O)O)cn3c2c1OCC3C (stereo not drawn) [TMB49]	≤0.06	0.5 and 1	0.25	≤0.06	have antimicrobial activity	1	0.125	–	1	–	–	1	–	–	–	–
CC(=O)O.CC[P+](CC)(CC)[Au-][c]1nn[nH]c1CCN [TMB50]	≤0.06	0.25	0.125	≤0.06	have antimicrobial activity	0.5	0.125	–	0.25	–	–	0.25	–	–	–	–
C#CCNc1c(F)cc2c(=O)c(C(=O)O)cn3c2c1OCC3C (stereo not drawn) [TMB51]	2	>8	>8	4	do not show an antibacterial activity	>8	2	–	>8	–	–	>8	–	–	–	–
CC[P+](CC)(CC)[Au-][c]1nn[nH]c1CNC(=O)NC(C(=O)O)c1ccccc1 (stereo not drawn) [TMB52]	≤0.06	0.25	0.125	≤0.06	have antimicrobial activity	0.25	–	–	0.25	–	–	0.25	–	–	–	–
